Results on two molecules are retold here after patent publication US20100183604A1, “PREVENTIVE/REMEDY FOR CANCER” (TAKEDA PHARMACEUTICAL COMPANY LIMITED, priority 2007, published 2010).

“Also recorded” adds a separate entry of the source.

Assay [1] concerns BT474 cells highly sensitive to trastuzumab. The assay is described as follows: Viable cell count after HER2 inhibitor addition (no siRNA), high sensitive cell line. The format is cell-based, human. The settings on record: 5 days; for growth suppression: 1 μmol/L, no siRNA; for concentration dependence of growth (proliferation) suppression: range of final concentrations, similar level in both lines. The procedure:
(§1) After culture for 5 days at 37° C., 5% CO2, the number of viable cells was counted.

For assay [2], the system named is trastuzumab low sensitive BT-474 cells. The assay is described as follows: Viable cell count after HER2 inhibitor addition (no siRNA), low sensitive cell line. Conditions: 5 days; for growth suppression: 1 μmol/L, no siRNA; for concentration dependence of growth (proliferation) suppression: range of final concentrations, similar level in both lines. The class given is cell-based, human. As to the method:
as §1

Take `CC(C)(O)CC(=O)NCCn1ccc2ncnc(Nc3ccc(Oc4cccc(C(F)(F)F)c4)c(Cl)c3)c21` [compound A, N-{2-[4-({3-chloro-4-[3-(trifluoromethyl)phenoxy]phenyl}amino)-5H-pyrrolo[3,2-d]pyrimidin-5-yl]ethyl}-3-hydroxy-3-methylbutanamide]: in assay [1], the growth suppression result is “complete suppression of growth” and the “concentration dependence of growth (proliferation) suppression” value (shortened to “concentration dependence of growth”) is “suppressed in a concentration-dependent manner; also recorded: concentration-dependent growth suppression”. Further, in assay [2], the growth suppression entry is recorded as “complete suppression of growth” and the “concentration dependence of growth” value is given as “suppressed in a concentration-dependent manner; also recorded: concentration-dependent growth suppression”.

As to `CS(=O)(=O)CCNCc1ccc(-c2ccc3ncnc(Nc4ccc(OCc5cccc(F)c5)c(Cl)c4)c3c2)o1` [lapatinib], the growth suppression result in assay [1] and in assay [2] was “complete suppression of growth” each time. Moreover, the “concentration dependence of growth” value in assay [1] and in assay [2] was “suppressed in a concentration-dependent manner; also recorded: concentration-dependent growth suppression” throughout.
